Laboratory results from US7648966B2, “Mannose-6-phosphonate compounds for the treatment of inflammatory diseases” (Pharmaxis Pty Limited, priority 2003, dated 2010).
“And” between values parts separate entries of the source, which are not always exact repeats. Equal entries are not always repeated.

Test system: passively transferred EAE
Assay: Passively transferred experimental autoimmune encephalomyelitis (EAE)
Type: in vivo, Lewis rats
Settings: for Clinical Scores (individual rats): 45 mg/kg/day by mini-osmotic pump; for Clinical Scores (individual rats) / Mean Score: scale 0 to 5
Method: To study the effect of the present agents in vivo on a disease that includes in its pathogenesis the migration of T lymphocytes into a specific tissue, the brain, experiments were performed in the Lewis rat model of passively transferred EAE. MBP-specific T lymphocyte cell lines were generated from the draining LNs of Lewis rats that had been immunized with MBP in CFA essentially according to the method of Ben-Nun et al., 1981, supra. Donor T lymphocytes were generated from female 10 to 12 week old Lewis rats weighing 150 to 200 g. These rats had been injected intradermally in each hind footpad with an emulsion of guinea pig MBP (gpMBP) prepared according to Deibler, G E et al., […]. Biochem. 2:139-165 (1972), incorporated herein by reference) in CFA ([…]). The adjuvant emulsion was prepared by emulsifying equal volumes of a mixture of light mineral oil (Sigma) and a solution of the gpMBP in normal saline (0.5 mg/ml) and Mycobacterium butyricum (4 mg/ml; Difco). Thus, each rat received was 50 μg of MBP and 400 μg of M. butyricum. Approximately 11 days following injection the rats were euthanized and the draining LNs (popliteal and inguinal) were removed aseptically by blunt dissection and placed into lymphocyte culture medium as described above. A single cell suspension was prepared from the LNs as described above for spleen. The cells were washed twice in culture medium and any red blood cells were lysed with ammonium chloride as above. These cells, at concentration of 5×10^6/ml were cultured for 72 hours in the presence of MBP (0.06 mg/ml) at 37° C. in a humidified atmosphere containing 7.5% carbon dioxide. The cells were collected and the lymphoblasts were isolated by centrifugation on a Ficoll (Pharmacia, Uppsala, Sweden) gradient in an identical manner to that described by Ben Nun et al. supra. The fraction containing 90% lymphoblasts was cultured further in complete DMEM to which was added (15% v/v) a culture supernatant containing a mixture of growth factors (supernatant of concanavalin A-stimulated lymphocytes), 10% fetal calf serum, nonessential amino acids (Bio-Lab, Jerusalem, Israel). No antigen (MBP) was added. The cells were originally plated in 100 mm petri dishes at a concentration of 2×10^5 cells/mil and replated every 3 or 4 days. Prior to transfer into Lewis rat recipients, the cells were restimulated with antigen, MBP (0.01 mg/ml), and irradiated syngeneic thymocytes, as antigen-presenting cells, for 4 days. These cultured, stimulated T lymphocytes were highly encephalitogenic: as few as 5×10^5 cells could induced disease in naïve Lewis rats. In a typical experiment, a group of 5 female Lewis rats, approximately 9 weeks old, weighing 110±15 grams was anesthetized with diethyl ether and implanted with mini-osmotic pumps (Alzet 2002, Alza Corp., Palo Alto Calif., USA) containing 1-(2,4,-diimethyl phenyl)-6-phosphono-mannoside dissolved in normal saline at a concentration that delivered the drug at a rate of 45 mg/kg/day. A second group of 5 control animals were implanted under anesthesia with a similar pump containing normal saline. Just prior to recovering from the anesthetic, each animal received 5×10^5 cells of the above encephalitogenic T cell line iv in 0.2 ml of normal saline. […] The severity of EAE for each group of rats was calculated as a Disease Index (DI) which is (for those animals developing disease): [formula] This calculation allows a more complete assessment of the disease by incorporating both speed of onset and clinical severity and duration of the disease. […] In an identically designed experiment, rats were sacrificed on day 6 after T lymphocyte transfer and their spinal cords were harvested for histological assessment. Rats were deeply anesthetized (Nembutal) and perfused with 30 ml saline followed by 60 ml 10% neutral buffered formalin. Spinal cords were removed, fixed for 7 days in 10% formalin and embedded for sectioning. […]

[1] = 45 mg/kg/day, vs saline controls

Cc1ccc(O[C@H]2O[C@H](CCP(=O)(O)O)[C@@H](O)[C@H](O)[C@@H]2O)c(C)c1
animals that developed disease (45 mg/kg/day, control 5/5): 3/5
DI = Group Disease Index (45 mg/kg/day, control group DI 160): 40
duration of maximum clinical scores (45 mg/kg/day, controls two consecutive days): none of the 3 drug treated animals that developed symptoms had maximum clinical scores for more than one day
disease onset [1]: disease onset was delayed
disease severity [1]: disease severity was lower than that observed in the controls
Clinical Scores (individual rats) (Day 4): 0
Mean Score (Day 4, 45 mg/kg/day): 0
Clinical Scores (individual rats) (Day 5, listed as 1-(2,4,-dimethyl phenyl)-6-phosphono-mannoside, 45 mg/kg/day): 1 (3×) and 0 (2×)
Mean Score (Day 5, 45 mg/kg/day): 0.6
Clinical Scores (individual rats) (Day 6, listed as 1-(2,4,-dimethyl phenyl)-6-phosphono-mannoside, 45 mg/kg/day): 2 (2×) and 0 (2×) and 1
Mean Score (Day 6, 45 mg/kg/day): 1
Clinical Scores (individual rats) (Day 7, listed as 1-(2,4,-dimethyl phenyl)-6-phosphono-mannoside, 45 mg/kg/day): 0 (3×) and 1 (2×)
Mean Score (Day 7, 45 mg/kg/day): 0.4
lesions/section in the most affected animal (day 6 after T lymphocyte transfer, histology): no more than 8 lesions/section
average number of spinal cord lesions (day 6 after T lymphocyte transfer, histology, control approximately 15 lesions/section): 3.5 lesions
